These results are taken from patent US5508385A, “Tripeptide derivatives containing pyroglutamic acid residue” (Nitto Boseki Co., Ltd., priority 1990, dated 1996).

Common to all, as to assay type: biochemical
One assay has as its target T1, human factor Xa (Homo sapiens, UniProt P00742).
T1 construct: purchased Boehringer Mannheim
As to the kind of experiment: Inhibitory activity against factor Xa (synthetic substrate PS-2000). The conditions noted are these: Table 3; substrate PS-2000, pH 8.5, 37° C. An excerpt:
(§1) As synthetic substrates for examining the activity of inhibitor for inhibiting digestion of the substrates with enzyme, there were used PS-994 (H-D-Lys(Tos)-Phe-Lys-CHA.2HCl; manufactured by Nitto Boseki Co., Ltd.) for plasmin, PS-915 (H-D-Phe-Pro-Arg-CHA.2HCl; manufactured by Nitto Boseki Co., Ltd.) for thrombin and trypsin; PS-2000 (Z-D-Lys(HCO)-Gly-Arg-CHA.HCl; manufactured by Nitto Boseki Co., Ltd.) for factor Xa; S-2302 (H-D-Pro-Phe-Arg-pNA; manufactured by Kabi Co., Ltd.) for kallikrein; and [drawing 2] manufactured by Nitto Boseki Co., Ltd.) for urokinase.
(§2) As plasmin, thrombin, trypsin, factor Xa, kallikrein and urokinase, there were used 0.3 CU/ml of standard plasmin from Sankyo Color Test α2 -PI Measurement Kit, 1.2 NIH U/ml of thrombin from Sankyo Color Test AT-III Measurement Kit, 2 μg/ml of trypsin of Code 3703 of Worthington, 0.25 U/ml of human factor Xa manufactured by Boehringer Mannheim, 0.12 U/ml of human serum kallikrein manufactured by Kabi Co., Ltd. and 1000 U/ml of Urokinase 60000 (60,000 U/vial) manufactured by Mochida Pharmaceutical Co., Ltd., respectively. As a stopping (color forming) solution, there was used the one from the kit of Sankyo Color Test in the case of CHA type substrate. Enzyme reactions were carried out at 37° C.
To 0.3 ml of buffer solution (150 mM sodium chloride aqueous solution containing 50 mM Tris, pH 8.5) is added 0.1 ml of an aqueous solution of the inhibitor having various concentrations. After the mixture is heated for 5 minutes, 0.1 ml of factor Xa solution (150 mM sodium chloride aqueous solution containing 50 mM Tris and 20 mM calcium chloride, pH 8.5) is added thereto and the mixture is reacted for 5 minutes. Further 5% polyvinylpyrrolidone solution (0.1 ml) containing 10 mM PS-2000 is added followed by reaction for 5 minutes. Thereafter, 2 ml of the stopping color forming solution is added. After allowing to stand for 10 minutes, absorbance is measured at 700 nm and IC50 is determined according to the method described above.

The target in a further assay is thrombin (Bos taurus, UniProt P00735). In words: Inhibitory activity against thrombin (synthetic substrate PS-915). The conditions noted are these: Table 3; substrate PS-915, pH 8.5, 37° C.
Text: as §1, §2
To 0.4 ml of buffer solution (150 mM sodium chloride aqueous solution containing 150 mM Tris, pH 8.5) is added an aqueous solution (0.1 ml) of the inhibitor having various concentrations. The mixture is heated for 5 minutes. After 0.2 ml of thrombin solution is added thereto, the mixture is reacted for 5 minutes. Then 0.1 ml of PS-915 solution (10 mM) is added followed by reaction for 5 minutes. Thereafter, 2 ml of the stopping color forming solution is added. After allowing to stand for 10 minutes, absorbance is measured at 700 nm and IC50 is determined according to the method described above.

The next assay addresses plasmin (Homo sapiens, UniProt P00747). In words: Inhibitory activity against plasmin (synthetic substrate PS-994). The conditions noted are these: Table 3; substrate PS-994, pH 7.8, 37° C. As to the method:
As a stopping (color forming) solution, there was used the one from the kit of Sankyo Color Test in the case of CHA type substrate. Enzyme reactions were carried out at 37° C.
To 0.4 ml of buffer solution (150 mM sodium chloride aqueous solution containing 100 mM Tris, pH 7.8) is added an aqueous solution (0.1 ml) of the inhibitor having various concentrations. The mixture is heated for 5 minutes. After 0.2 ml of plasmin solution is added thereto, the mixture is reacted for 5 minutes. […] After completion of the reaction, 2.0 ml of the stopping color forming solution is added.

For another assay, the target named is T2, trypsin (Bos taurus, UniProt P00760).
T2 construct: purchased Worthington Code 3703
T2 sequence (P00760 24-246): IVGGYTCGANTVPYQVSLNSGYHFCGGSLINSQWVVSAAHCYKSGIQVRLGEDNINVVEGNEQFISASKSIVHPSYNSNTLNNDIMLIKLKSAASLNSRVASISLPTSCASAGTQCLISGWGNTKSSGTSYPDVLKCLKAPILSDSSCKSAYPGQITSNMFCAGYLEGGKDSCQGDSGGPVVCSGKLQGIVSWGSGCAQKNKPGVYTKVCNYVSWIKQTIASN
As to the kind of experiment: Inhibitory activity against trypsin (synthetic substrate PS-915). The settings on record: Table 3; substrate PS-915, pH 8.0, 37° C.
Text: as §1, §2
To 0.5 ml of buffer solution (150 mM sodium chloride aqueous solution containing 150 mM Tris, pH 8.0) is added 0.1 ml of an aqueous solution of the inhibitor. After the mixture is heated for 5 minutes, 0.1 ml of trypin solution is added thereto. Further 0.1 ml of PS-915 solution (10 mM) is added followed by reaction for 5 minutes. Thereafter, 2 ml of the stopping color forming solution [containing 2.5 mg/ml of soybean trypsin inhibitor (manufactured by Sigma Co., No. T-9003)] is added. After allowing to stand for 10 minutes, absorbance is measured at 700 nm and IC50 is determined according to the method described above.

Another assay deals with T3, human serum kallikrein (Homo sapiens, UniProt P03952).
T3 construct: purchased Kabi Co., Ltd
In words: Inhibitory activity against kallikrein (synthetic substrate S-2302). The conditions noted are these: substrate S-2302, pH 8.0, 37° C.
Text: as §1, §2
To 0.4 ml of buffer solution (150 mM sodium chloride aqueous solution containing 50 mM Tris, pH 8.0) is added 0.1 ml of an aqueous solution of the inhibitor. After the mixture is heated for 5 minutes, 0.1 ml of kallikrein solution (containing 0.5% bovine serum albumin, No. A-8022 manufactured by Sigma Co.) is added thereto followed by reaction for 5 minutes. Further 10 mM S-2302 aqueous solution (0.1 ml) is added thereto. After reacting for 5 minutes, 5 ml of 20% acetic acid aqueous solution is added to terminate the reaction. Absorbance is measured at 405 nm and IC50 is determined according to the method described above.

A further assay addresses T4, urokinase (Homo sapiens, UniProt P00749).
T4 construct: purchased Mochida Pharmaceutical Co., Ltd. Urokinase 60000 (60,000 U/vial)
As to the kind of experiment: Inhibitory activity against urokinase (synthetic substrate MUK-34). The conditions noted are these: Table 3; substrate MUK-34, pH 8.20, 37° C.
Text: as §1, §2
To 0.3 ml of buffer solution (150 mM sodium chloride aqueous solution containing 50 mM Tris, pH 8.20) is added 0.1 ml of an aqueous solution of the inhibitor having various concentrations. After the mixture is heated for 5 minutes, 0.1 ml of urokinase solution (150 mM sodium chloride aqueous solution containing 50 mM Tris and 0.1% BSA, pH 8.20) is added thereto and the mixture is reacted for 5 minutes. Then 10 mM MUK-34 aqueous solution (0.1 ml) is added to the mixture. After reacting for 5 minutes, 10% acetic acid aqueous solution (2.0 ml) is added to terminate the reaction. Absorbance is measured at 405 nm and IC50 is determined according to the method described above.

Setting [1] is: Table 3, read-out: IC50, kallikrein (Table 3).

Where a name gives a salt, the structure may show the parent alone. Read-outs that look alike come from different tables or passages of the source. Where a SMILES comes first, the peptide text is derived from it. [ ]: non-standard residue; d: D form. pGlu = O=C1CC[C@@H](C(=O)O)N1

Sequence of plasmin (P00747 97-810): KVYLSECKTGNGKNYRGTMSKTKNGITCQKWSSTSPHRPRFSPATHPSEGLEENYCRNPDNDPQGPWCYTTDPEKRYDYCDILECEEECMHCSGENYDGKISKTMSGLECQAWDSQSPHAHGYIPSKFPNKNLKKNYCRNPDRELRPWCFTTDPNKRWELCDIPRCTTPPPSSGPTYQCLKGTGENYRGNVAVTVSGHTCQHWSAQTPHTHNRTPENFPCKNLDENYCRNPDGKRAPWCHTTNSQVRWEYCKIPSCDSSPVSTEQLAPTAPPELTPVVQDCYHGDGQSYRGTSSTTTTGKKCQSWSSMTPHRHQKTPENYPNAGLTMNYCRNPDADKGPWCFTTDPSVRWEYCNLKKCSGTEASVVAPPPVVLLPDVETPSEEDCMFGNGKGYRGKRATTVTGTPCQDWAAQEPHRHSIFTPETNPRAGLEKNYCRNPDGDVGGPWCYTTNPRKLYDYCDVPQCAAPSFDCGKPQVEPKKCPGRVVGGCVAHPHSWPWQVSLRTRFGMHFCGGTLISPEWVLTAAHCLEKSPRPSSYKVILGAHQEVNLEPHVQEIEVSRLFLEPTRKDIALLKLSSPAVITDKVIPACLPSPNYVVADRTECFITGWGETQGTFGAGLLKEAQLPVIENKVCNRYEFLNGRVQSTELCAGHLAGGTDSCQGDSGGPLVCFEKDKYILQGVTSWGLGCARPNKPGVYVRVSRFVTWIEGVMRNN
T1 sequence (P00742 235-488 limits assumed): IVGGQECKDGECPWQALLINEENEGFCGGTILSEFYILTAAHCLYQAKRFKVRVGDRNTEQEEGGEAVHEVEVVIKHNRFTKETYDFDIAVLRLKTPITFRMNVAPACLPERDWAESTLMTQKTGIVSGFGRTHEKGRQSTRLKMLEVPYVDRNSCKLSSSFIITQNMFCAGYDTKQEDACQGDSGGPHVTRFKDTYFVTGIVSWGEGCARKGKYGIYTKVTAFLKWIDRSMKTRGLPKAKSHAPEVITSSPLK
T1 sequence (P00742 41-179 partner limits assumed): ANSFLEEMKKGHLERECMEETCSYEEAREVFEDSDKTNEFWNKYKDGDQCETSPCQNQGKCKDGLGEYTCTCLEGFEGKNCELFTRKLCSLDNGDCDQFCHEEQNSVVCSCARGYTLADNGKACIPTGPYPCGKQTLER
T3 sequence (P03952 391-638 limits assumed): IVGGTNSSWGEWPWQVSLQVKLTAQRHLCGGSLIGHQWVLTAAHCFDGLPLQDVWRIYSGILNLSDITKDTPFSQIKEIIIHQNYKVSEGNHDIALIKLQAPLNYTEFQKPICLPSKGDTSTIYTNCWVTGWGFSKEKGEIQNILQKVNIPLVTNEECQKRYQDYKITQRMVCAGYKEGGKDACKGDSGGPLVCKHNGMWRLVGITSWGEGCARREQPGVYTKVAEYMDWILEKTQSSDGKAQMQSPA
T3 sequence (P03952 20-390 partner limits assumed): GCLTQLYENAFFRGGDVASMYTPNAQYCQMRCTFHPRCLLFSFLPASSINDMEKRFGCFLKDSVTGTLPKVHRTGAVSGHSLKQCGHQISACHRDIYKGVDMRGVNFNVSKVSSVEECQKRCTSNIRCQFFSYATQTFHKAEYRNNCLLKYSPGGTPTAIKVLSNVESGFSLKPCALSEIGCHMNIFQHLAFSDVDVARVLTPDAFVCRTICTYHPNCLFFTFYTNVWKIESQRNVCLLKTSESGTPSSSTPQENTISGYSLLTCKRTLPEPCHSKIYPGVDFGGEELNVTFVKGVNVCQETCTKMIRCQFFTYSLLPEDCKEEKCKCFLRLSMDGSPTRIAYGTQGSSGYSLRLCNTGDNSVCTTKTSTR

For orientation: IC50 means the concentration needed to halve the response being measured. For the compound `N=C(N)NCCC[C@@H](C=O)NC(=O)[C@@H]1CCCN1C(=O)[C@@H]1CCC(=O)N1` [Example 13, L-pyroglutamyl-L-prolyl-L-argininal 1/2 sulfate] ([pGlu]-Pro-Arg-aldehyde), the IC50 against human factor Xa came out at 13000 nM; against thrombin it was 22 µM; on plasmin, 1400 nM; against trypsin, 20 nM; at human serum kallikrein (setting [1]), 5.5 µM; against urokinase, 0.68 µM.
`CC(=O)N[C@@H](CC(C)C)C(=O)N[C@@H](CC(C)C)C(=O)N[C@H](C=O)CCCNC(=N)N` [Example A1, acetyl-L-leucyl-L-leucyl-L-argininal, reference compound]: the IC50 on human serum kallikrein (Table 2, read-out: IC50 of Known Compound, Kallikrein) turned out to be 6.9 µM.
For “N-benzyloxycarbonyl-D-pyroglutamyl-L-leucyl-L-argininal hydrochloride [Example 7]”, the IC50 against human factor Xa was 4700 nM; at thrombin it was over 100 µM; on plasmin, 2800 nM; against trypsin it was 430 nM; at human serum kallikrein (setting [1]), 3.1 µM; at urokinase it was 30 µM.
As to “N-benzyloxycarbonyl-D-pyroglutamyl-L-phenylalanyl-L-argininal hydrochloride [Example 9]”, the IC50 against human factor Xa was 720 nM; against thrombin, over 100 µM; against plasmin, 1300 nM; against trypsin, 1000 nM; on human serum kallikrein (setting [1]), 0.87 µM; against urokinase, 40 µM.
“N-benzyloxycarbonyl-D-pyroglutamyl-L-prolyl-L-argininal hydrochloride [Example 6]”: the IC50 against human factor Xa was determined as 5000 nM; against thrombin, 22 µM; at plasmin, 4600 nM; against trypsin, 62 nM; at human serum kallikrein (setting [1]) it was 13 µM; against urokinase it was 1.1 µM.
For “N-benzyloxycarbonyl-L-pyroglutamyl-L-alanyl-L-argininal hydrochloride [Example 2]”, the IC50 against human factor Xa turned out to be 520 nM; at thrombin, 5.9 µM; on plasmin, 7200 nM; on trypsin it was 7.4 nM; on human serum kallikrein (setting [1]) it was 7.8 µM; at urokinase, 7.6 µM.
On to “N-benzyloxycarbonyl-L-pyroglutamyl-L-phenylalanyl-L-argininal hydrochloride [Example 3]”, for which the IC50 was 590 nM at human factor Xa; 35 µM against thrombin; 1100 nM against plasmin; 69 nM against trypsin; 0.42 µM at human serum kallikrein (setting [1]); 76 µM against urokinase.
Consider “N-benzyloxycarbonyl-L-pyroglutamyl-L-prolyl-L-argininal hydrochloride [Example 1]”, for which the IC50 is 360 nM against human factor Xa; 0.056 µM against thrombin; 3200 nM on plasmin; 6.2 nM on trypsin; 5 µM on human serum kallikrein (setting [1]); 22 µM against urokinase.
